Measurements published in patent publication US20110251212A1, “PIPERAZINE DERIVATIVES” (SHIONOGI & CO., LTD., priority 2007, published 2011).

Key:
[1] = molecular target: T1, NMDA Receptor (NR1/NR2B Receptor) (Rattus norvegicus, UniProt P35439+Q00960); assay: Experiment of binding to NMDA receptor (NR1/NR2B receptor), [3H]-Ifenprodil competition, rat cerebral cortex membrane; conditions: [3H]-Ifenprodil 5 nM, GBR-12909 3 μM, ice temperature 120 minutes
T1 construct: this was used as a membrane specimen in an experiment; from tissue; host or cells: rat cerebral cortex membranes
T1 sequence (Q00960 27-1482, other chains not shown): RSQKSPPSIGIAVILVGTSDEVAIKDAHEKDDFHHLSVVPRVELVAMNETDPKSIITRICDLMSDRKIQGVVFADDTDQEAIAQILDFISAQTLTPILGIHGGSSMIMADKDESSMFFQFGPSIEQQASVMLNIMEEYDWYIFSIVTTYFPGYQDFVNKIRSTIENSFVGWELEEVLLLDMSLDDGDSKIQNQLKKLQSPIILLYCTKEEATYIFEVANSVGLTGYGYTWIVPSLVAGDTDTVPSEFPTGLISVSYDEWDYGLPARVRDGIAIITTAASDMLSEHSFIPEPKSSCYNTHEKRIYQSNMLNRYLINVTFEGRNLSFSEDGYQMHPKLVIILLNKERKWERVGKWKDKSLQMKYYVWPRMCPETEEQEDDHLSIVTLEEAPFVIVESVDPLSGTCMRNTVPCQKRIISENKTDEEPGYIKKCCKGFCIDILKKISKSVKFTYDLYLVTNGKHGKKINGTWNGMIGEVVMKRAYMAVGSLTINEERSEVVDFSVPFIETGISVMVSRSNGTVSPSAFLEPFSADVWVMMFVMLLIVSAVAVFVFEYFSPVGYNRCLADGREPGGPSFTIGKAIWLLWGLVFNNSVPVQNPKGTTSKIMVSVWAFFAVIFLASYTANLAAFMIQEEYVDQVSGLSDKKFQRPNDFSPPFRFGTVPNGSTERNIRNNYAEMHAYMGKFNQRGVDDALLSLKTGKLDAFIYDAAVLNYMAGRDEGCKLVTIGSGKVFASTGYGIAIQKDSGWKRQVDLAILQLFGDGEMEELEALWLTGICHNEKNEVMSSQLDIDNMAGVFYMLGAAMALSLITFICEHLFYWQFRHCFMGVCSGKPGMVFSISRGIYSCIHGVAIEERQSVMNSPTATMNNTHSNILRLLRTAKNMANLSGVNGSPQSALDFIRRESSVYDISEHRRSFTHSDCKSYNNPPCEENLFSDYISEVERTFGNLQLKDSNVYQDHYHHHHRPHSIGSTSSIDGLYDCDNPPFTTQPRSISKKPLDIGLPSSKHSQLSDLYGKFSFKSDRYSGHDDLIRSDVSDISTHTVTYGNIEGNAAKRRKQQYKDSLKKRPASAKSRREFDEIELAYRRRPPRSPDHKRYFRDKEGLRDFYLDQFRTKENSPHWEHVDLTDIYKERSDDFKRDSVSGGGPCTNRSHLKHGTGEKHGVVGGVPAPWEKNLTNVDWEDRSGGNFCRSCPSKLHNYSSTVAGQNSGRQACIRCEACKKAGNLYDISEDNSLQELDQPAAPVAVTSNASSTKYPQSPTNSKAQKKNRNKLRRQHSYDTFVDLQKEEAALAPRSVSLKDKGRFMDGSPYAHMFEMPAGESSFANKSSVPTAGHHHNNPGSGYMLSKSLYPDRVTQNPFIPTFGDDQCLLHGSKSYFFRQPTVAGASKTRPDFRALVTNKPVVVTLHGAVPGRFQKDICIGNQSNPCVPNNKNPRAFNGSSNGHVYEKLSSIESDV
Procedure: Using Ifenprodil which is a NR1/NR2B subtype receptor-specific antagonist as a ligand, an experiment of receptor competition with a test compound was performed.
A male Slc:Wistar rat was used as an animal, a decapitated brain was isolated, and cerebral cortex was fractionated. The cerebral cortex was homogenized with a 20-fold amount of an ice-cooled 50 mM Tris/HCl buffer (pH 7.4), and centrifuged at 4° C. and 27,500×g for 10 minutes. The resulting precipitate was suspended in the same buffer, and the suspension was centrifuged again. This procedure was repeated three times, and the resulting precipitate was suspended in a buffer, and stored at −80° C. Immediately before an experiment, the frozen suspension was thawed at room temperature, and centrifuged at 4° C. and 27,500×g for 10 minutes, and the resulting precipitate was suspended in a buffer. The suspension was further diluted 10-fold with a buffer, and this was used as a membrane specimen in an experiment.
In a binding experiment, to 470 μl of the membrane specimen were added 10 μl of different concentrations of a test compound, 10 μl of a labeled ligand [3H]-Ifenprodil and 10 μl of GBR-12909, and this was incubated at an ice temperature for 120 minutes. A concentration of [3H]-Ifenprodil of the labeled ligand was finally 5 nM, and a concentration of GBR-12909 was finally 3 μM. For measuring a total binding amount, DMSO as a solvent was used and, for measuring a non-specific binding amount, 100 μM of Ifenprodil was used. In addition, GBR-12909 was added in order to block binding of [3H]-Ifenprodil to a non-polyamine-sensitive site. After incubation, a bound body and a free body were separated using a Whatman GF/C filter (manufactured by Whatman), and the filter was washed with 2.5 ml of an ice-cooled buffer four times. The filter was immersed in a liquid scintillation (Clear-sol I, manufactured by Nacalai tesque) in a vial bottle, and radioactivity (dpm) was measured with a liquid scintillation counter. From a measured value, a binding inhibition rate (%) was obtained by the following equation, and a dose at which binding is inhibited 50% (IC50) was calculated. A formula of GBR-12909 (Vanoxerine) is shown below.
Binding inhibition rate(%)=100−[(binding amount in presence of test compound−non-specific amount)/(total binding amount−non-specific binding amount)]×100

[2] = molecular target: T2, mouse NMDA receptor (NR1 subunit and NR2B subunit co-expressed in HEK293 cells) (Mus musculus, UniProt P35438+Q01097); assay: Expression of NMDA receptor and measurement of Ca ion flow in amount (HEK293 cells, Fluo-3/AM, FDSS3000); format: cell-based; conditions: Ca ion flow in induced with glutamic acid 20 μM/glycine 2 μM, read-out: Ca2+ 1050
T2 construct: expressed in transfected cells; host or cells: HEK293 cells, transient, pcDNA 3.1 plasmids
T2 sequence (Q01097 27-1482, other chains not shown): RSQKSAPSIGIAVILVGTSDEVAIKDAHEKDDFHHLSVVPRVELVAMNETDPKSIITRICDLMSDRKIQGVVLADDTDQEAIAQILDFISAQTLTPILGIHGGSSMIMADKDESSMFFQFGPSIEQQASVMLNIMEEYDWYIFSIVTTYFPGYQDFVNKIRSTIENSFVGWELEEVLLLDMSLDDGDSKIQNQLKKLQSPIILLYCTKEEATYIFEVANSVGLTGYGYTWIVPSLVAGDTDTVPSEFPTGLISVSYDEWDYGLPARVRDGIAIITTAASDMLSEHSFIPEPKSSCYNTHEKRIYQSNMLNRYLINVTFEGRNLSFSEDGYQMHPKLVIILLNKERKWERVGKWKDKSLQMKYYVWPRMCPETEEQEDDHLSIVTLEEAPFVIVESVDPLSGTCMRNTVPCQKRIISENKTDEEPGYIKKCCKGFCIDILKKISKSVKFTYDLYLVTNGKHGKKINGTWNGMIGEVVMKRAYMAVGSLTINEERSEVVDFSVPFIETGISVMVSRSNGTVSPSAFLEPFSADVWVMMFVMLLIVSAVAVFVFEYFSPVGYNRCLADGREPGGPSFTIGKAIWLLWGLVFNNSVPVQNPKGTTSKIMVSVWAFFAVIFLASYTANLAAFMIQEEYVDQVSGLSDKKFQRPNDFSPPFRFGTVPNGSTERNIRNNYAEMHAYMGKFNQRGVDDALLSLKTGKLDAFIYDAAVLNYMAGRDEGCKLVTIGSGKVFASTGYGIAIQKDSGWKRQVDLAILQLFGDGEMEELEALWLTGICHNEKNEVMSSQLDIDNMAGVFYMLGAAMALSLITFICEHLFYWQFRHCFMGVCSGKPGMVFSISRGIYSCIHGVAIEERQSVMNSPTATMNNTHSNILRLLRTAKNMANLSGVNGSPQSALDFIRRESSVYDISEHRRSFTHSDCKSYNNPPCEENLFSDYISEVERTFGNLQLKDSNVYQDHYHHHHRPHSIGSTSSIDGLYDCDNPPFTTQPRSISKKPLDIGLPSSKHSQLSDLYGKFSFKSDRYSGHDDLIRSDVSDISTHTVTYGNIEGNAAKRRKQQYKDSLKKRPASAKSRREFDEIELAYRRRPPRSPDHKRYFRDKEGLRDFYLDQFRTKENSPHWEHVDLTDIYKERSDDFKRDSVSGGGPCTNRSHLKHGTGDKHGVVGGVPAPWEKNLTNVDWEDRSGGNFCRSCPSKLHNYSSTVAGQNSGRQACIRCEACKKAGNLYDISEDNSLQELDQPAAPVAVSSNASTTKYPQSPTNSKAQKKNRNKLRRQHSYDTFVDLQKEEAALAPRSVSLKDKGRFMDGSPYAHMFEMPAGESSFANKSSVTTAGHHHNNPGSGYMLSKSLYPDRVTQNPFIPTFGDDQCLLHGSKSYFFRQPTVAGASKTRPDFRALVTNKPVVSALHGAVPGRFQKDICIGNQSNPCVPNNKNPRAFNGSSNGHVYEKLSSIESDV
Procedure: Test Example 2 Expression of NMDA receptor and measurement of Ca ion flow in amount
A complementary DNA (cDNA) of a mouse NMDA receptor subunit was transiently introduced into HEK293 cells and, after one day from introduction, change in a glutamic acid/glycine-induced intracellular Ca amount was measured using a Ca ion reactive fluorescent dye.
HEK293 cells were cultured and passaged using a modified Dulbecco's Eagle medium (DMEM, low glucose).
20,000/well of HEK293 cells were seeded on a 96-well plate, a NR1 subunit and a NR2B subunit of a NMDA receptor incorporated into pcDNA 3.1 plasmid were transiently introduced into cells, and co-expression of subunits was performed. An introduction amount of a DNA was such that the NR1 subunit was 0.025 μg, and the NR2B subunit was 0.075 μg per well. For cells after introduction, cell death was inhibited using 50 μM of a NMDA receptor antagonist MK-801.
For adjusting a test compound and washing cells, Krebs Ringer Hepes buffer (KRH, Ca: 5 mM) was used.
One day after introduction, the NMDA receptor antagonist MK-801 was washed off using the KRH buffer, and a Ca ion indicative fluorescent dye Fluo-3/AM was made to be taken into cells. Flow in of a Ca ion was induced with glutamic acid 20 μM/glycine 2 μM. Change in a fluorescence amount due to intracellular Ca ion flow in was measured at excitation 480 nm using a fluorescence imaging system FDSS3000.
From a measured value of the test compound, a Ca ion flow in inhibitory rate (%) was obtained by the following equation, and a dose at which flow in is 50% inhibited (IC50) was calculated.
Ca ion flow in inhibitory rate(%)=100−[(fluorescence amount in presence of test compound−background fluorescence amount)/(total fluorescence amount[…]background fluorescence amount)]×100

Structure (SMILES) | melting point [°C] | IC50 [1] [µM] | IC50 [2] [nM]
C[C@@H]1CN(c2ccc(F)cc2)C[C@H](C)N1C(=O)C(=O)Nc1ccc2[nH]c(=O)oc2c1 [Compound I-5] | 245 to 246 | – | –
COc1c(F)cc(N2CCN(C(=O)CNc3ccc4[nH]c(=O)oc4c3)C[C@H]2C)cc1F [Compound I-43] | – | 0.065 | 21
Cc1cc(N2CCN(CC(=O)Nc3ccc4[nH]c(=O)oc4c3)C[C@H]2C)ccc1Cl [Compound I-60] | – | 0.08 | 10
Cc1ccc(N2CCN(C(=O)C(=O)Nc3ccc4[nH]c(=O)oc4c3)CC2)cc1F [Compound I-26] | – | 0.014 | 7
Cc1ccc(N2CCN(C(=O)C(=O)Nc3ccc4[nH]c(=O)oc4c3)C[C@H]2C)cc1F [Compound I-28] | – | 0.068 | 3
O=C(CCNc1ccc2[nH]c(=O)oc2c1)N1CCN(c2ccc(Cl)c(F)c2)CC1 [Compound I-2] | 187 to 189 | – | –
Cc1cc(N2CCN(C(=O)C(=O)Nc3ccc4[nH]c(=O)oc4c3)C[C@H]2C)ccc1Cl [Compound I-41] | – | 0.067 | 5
Cc1ccc(N2CCN(C(=O)C(=O)Nc3ccc4[nH]c(=O)oc4c3)C[C@H]2C)cc1Cl [Compound I-39] | – | 0.08 | 9
Cc1ccc(N2CCN(C(=O)C(=O)Nc3ccc4[nH]c(=O)oc4c3)[C@H](C)C2)cc1 [Compound I-22] | – | 0.085 | 22
O=C(Nc1ccc2[nH]c(=O)oc2c1)C(=O)N1CCN(c2cc(F)cc(F)c2)CC1 [Compound I-12] | – | – | 108
C[C@@H]1CN(C(=O)CNc2ccc3[nH]c(=O)oc3c2)CCN1c1ccc(Cl)c(F)c1 [Compound I-17] | – | 0.024 | 3
COCc1ccc(N2CCN(C(=O)C(=O)Nc3ccc4[nH]c(=O)oc4c3)CC2)cc1F [Compound I-33] | – | 0.059 | 26
C[C@@H]1CN(c2ccc(Cl)cc2)CCN1C(=O)CNc1ccc2[nH]c(=O)oc2c1 [Compound I-15] | – | 0.039 | 5
C[C@@H]1CN(C(=O)C(=O)Nc2ccc3[nH]c(=O)oc3c2)CCN1c1ccc(C(F)(F)F)cc1 [Compound I-50] | – | 0.064 | 5
Cc1cc(N2CCN(C(=O)C(=O)Nc3ccc4[nH]c(=O)oc4c3)CC2)ccc1F [Compound I-46] | – | – | 83
O=C(NCCN1CCN(c2ccc(Cl)cc2)CC1)c1ccc2[nH]c(=O)oc2c1 [Compound I-65] | – | 0.026 | 10
Cc1ccc(N2CCN(C(=O)C(=O)Nc3ccc4[nH]c(=O)oc4c3)[C@H](C)C2)cc1F [Compound I-27] | – | 0.035 | 2
C[C@@H]1CN(C(=O)C(=O)Nc2ccc3[nH]c(=O)oc3c2)CCN1c1ccc(OCC(F)(F)F)cc1 [Compound I-23] | – | – | 22
COc1c(F)cc(N2CCN(C(=O)CNc3ccc4[nH]c(=O)oc4c3)[C@H](C)C2)cc1F [Compound I-9] | – | 0.031 | 7
Cc1ccc(N2CCN(C(=O)C(=O)Nc3ccc4[nH]c(=O)oc4c3)[C@H](C)C2)cc1Cl [Compound I-38] | – | 0.041 | 7
COCc1ccc(N2CCN(C(=O)C(=O)Nc3ccc4[nH]c(=O)oc4c3)C[C@H]2C)cc1 [Compound I-20] | – | – | 41
Cc1cc(N2CCN(C(=O)C(=O)Nc3ccc4[nH]c(=O)oc4c3)C[C@H]2C)ccc1F [Compound I-49] | – | – | 19
C[C@@H]1CN(c2ccc(Cl)cc2)CCN1CC(=O)Nc1ccc2[nH]c(=O)oc2c1 [Compound I-53] | – | 0.134 | 33

Structure (SMILES) | melting point [°C] | IC50 [1] [µM] | IC50 [2] [nM]
C[C@@H]1CN(C(=O)CNc2ccc3[nH]c(=O)oc3c2)CCN1c1ccc(OC(F)(F)F)cc1 [Compound I-30] | – | – | 31
Cc1cc(N2CCN(C(=O)C(=O)Nc3ccc4[nH]c(=O)oc4c3)[C@H](C)C2)ccc1F [Compound I-45] | – | – | 57
CO/N=C/c1ccc(N2CCN(C(=O)C(=O)Nc3ccc4[nH]c(=O)oc4c3)[C@H](C)C2)cc1 [Compound I-31] | – | – | 106
C[C@@H]1CN(CC(=O)Nc2ccc3[nH]c(=O)oc3c2)CCN1c1ccc(Cl)cc1 [Compound I-59] | – | 0.042 | 6
Cc1cc(N2CCN(C(=O)C(=O)Nc3ccc4[nH]c(=O)oc4c3)CC2)ccc1Cl [Compound I-37] | – | 0.029 | 9
COCc1ccc(N2CCN(C(=O)C(=O)Nc3ccc4[nH]c(=O)oc4c3)[C@H](C)C2)cc1F [Compound I-34] | – | 0.099 | 32
CC[C@@H]1CN(c2ccc(Cl)cc2)CCN1C(=O)C(=O)Nc1ccc2[nH]c(=O)oc2c1 [Compound I-52] | – | 0.081 | 8
C[C@@H]1CN(c2ccc(OCC(F)(F)F)cc2)CCN1C(=O)C(=O)Nc1ccc2[nH]c(=O)oc2c1 [Compound I-24] | – | 0.105 | 19
COCc1ccc(N2CCN(C(=O)C(=O)Nc3ccc4[nH]c(=O)oc4c3)[C@H](C)C2)cc1 [Compound I-32] | – | – | 105
C[C@@H]1CN(CC(=O)Nc2ccc3[nH]c(=O)oc3c2)CCN1c1ccc(Cl)c(F)c1 [Compound I-55] | – | 0.033 | 4
C[C@@H]1CN(C(=O)C(=O)Nc2cnc3[nH]c(=O)oc3c2)CCN1c1ccc(OC(F)(F)F)cc1 [Compound I-25] | – | – | 9
Cc1ccc(N2CCN(C(=O)C(=O)Nc3ccc4[nH]c(=O)oc4c3)C[C@H]2C)cc1 [Compound I-29] | – | 0.129 | 9
CC[C@@H]1CN(C(=O)C(=O)Nc2ccc3[nH]c(=O)oc3c2)CCN1c1ccc(Cl)cc1 [Compound I-51] | – | 0.09 | 5
C[C@@H]1CN(C(=O)C(=O)Nc2ccc3[nH]c(=O)oc3c2)CCN1c1cc(F)cc(F)c1 [Compound I-13] | – | 0.114 | 14
Cc1ccc(N2CCN(C(=O)C(=O)Nc3ccc4[nH]c(=O)oc4c3)CC2)cc1 [Compound I-18] | – | 0.107 | 48
C[C@@H]1CN(c2ccc(F)c(Cl)c2)CCN1CC(=O)Nc1ccc2[nH]c(=O)oc2c1 [Compound I-54] | – | – | 52
C[C@@H]1CN(C(=O)CNc2ccc3[nH]c(=O)oc3c2)CCN1c1ccc(Cl)cc1 [Compound I-16] | – | 0.072 | 12
C[C@@H]1CN(c2cc(F)cc(F)c2)CCN1C(=O)C(=O)Nc1ccc2[nH]c(=O)oc2c1 [Compound I-14] | – | – | 48
Cc1ccc(N2CCN(C(=O)C(=O)Nc3ccc4[nH]c(=O)oc4c3)CC2)cc1Cl [Compound I-35] | – | 0.02 | 9
C[C@@H]1CN(c2ccc(OC(F)(F)F)cc2)CCN1C(=O)CNc1ccc2[nH]c(=O)oc2c1 [Compound I-36] | – | 0.071 | –
O=C(Nc1ccc2[nH]c(=O)oc2c1)C(=O)N1CCN(c2ccc(OCC(F)(F)F)cc2)CC1 [Compound I-21] | – | – | 47
COc1c(F)cc(N2CCN(CC(=O)Nc3ccc4[nH]c(=O)oc4c3)C[C@H]2C)cc1F [Compound I-57] | – | 0.056 | 4
COc1c(F)cc(N2CCN(CC(=O)Nc3ccc4[nH]c(=O)oc4c3)CC2)cc1F [Compound I-56] | – | 0.044 | 12
